Values quoted from earlier work as cited in paper PMC9737391, “Trifluoromethylcinnamanilide Michael Acceptors for Treatment of Resistant Bacterial Infections” (International Journal of Molecular Sciences, 2022).

Key:
M. tuberculosis H37Ra = tested on: M. tuberculosis H37Ra; set-up: method as in ref 26 = [26]; PMID 30087309; doi:10.3390/ijms19082318; 26. Pospisilova S. Kos J. Michnova H. Kapustikova I. Strharsky T. Oravec M. Moricz A.M. Bakonyi J. Kauerova T. Kollar P. Synthesis and spectrum of biological activities of novel N -arylcinnamamides In; conditions: average over the named compounds; cited from earlier work
S. aureus/MRSA = tested on: S. aureus/MRSA; set-up: method as in ref 26, 51 = [26]; PMID 30087309; doi:10.3390/ijms19082318; 26. Pospisilova S. Kos J. Michnova H. Kapustikova I. Strharsky T. Oravec M. Moricz A.M. Bakonyi J. Kauerova T. Kollar P. Synthesis and spectrum of biological activities of novel N -arylcinnamamides In || [51]; 51. Pospisilova S. Kos J. Michnova H. Strharsky T. Cizek A. Jampilek J. N -Arylcinnamamides as antistaphylococcal agents Proceedings of the 4th International Electronic Conference on Medicinal Chemist; conditions: cited from earlier work
staphylococcal biofilm = tested on: staphylococcal biofilm; set-up: method as in ref 26, 51 = [26]; PMID 30087309; doi:10.3390/ijms19082318; 26. Pospisilova S. Kos J. Michnova H. Kapustikova I. Strharsky T. Oravec M. Moricz A.M. Bakonyi J. Kauerova T. Kollar P. Synthesis and spectrum of biological activities of novel N -arylcinnamamides In || [51]; 51. Pospisilova S. Kos J. Michnova H. Strharsky T. Cizek A. Jampilek J. N -Arylcinnamamides as antistaphylococcal agents Proceedings of the 4th International Electronic Conference on Medicinal Chemist; conditions: cited from earlier work
M. tuberculosis = tested on: M. tuberculosis; set-up: method as in ref 26 = [26]; PMID 30087309; doi:10.3390/ijms19082318; 26. Pospisilova S. Kos J. Michnova H. Kapustikova I. Strharsky T. Oravec M. Moricz A.M. Bakonyi J. Kauerova T. Kollar P. Synthesis and spectrum of biological activities of novel N -arylcinnamamides In; conditions: MTT, at MIC values; cited from earlier work
MRSA = tested on: MRSA; set-up: method as in ref 26, 51 = [26]; PMID 30087309; doi:10.3390/ijms19082318; 26. Pospisilova S. Kos J. Michnova H. Kapustikova I. Strharsky T. Oravec M. Moricz A.M. Bakonyi J. Kauerova T. Kollar P. Synthesis and spectrum of biological activities of novel N -arylcinnamamides In || [51]; 51. Pospisilova S. Kos J. Michnova H. Strharsky T. Cizek A. Jampilek J. N -Arylcinnamamides as antistaphylococcal agents Proceedings of the 4th International Electronic Conference on Medicinal Chemist; conditions: against MRSA; cited from earlier work

## O=C(/C=C/c1ccccc1)Nc1cccc(C(F)(F)F)c1 [3a]
M. tuberculosis H37Ra
  average MIC against M. tuberculosis H37Ra: ~ 24 µM
S. aureus/MRSA
  bactericidal effect: bactericidal effect in concentrations close to MICs
Staphylococcal biofilm
  effect on staphylococcal biofilm: ability to inhibit the growth of staphylococcal biofilm and disrupted mature biofilm in concentrations close to MICs

## O=C(/C=C/c1ccccc1)Nc1cc(C(F)(F)F)cc(C(F)(F)F)c1 [3b]
M. tuberculosis H37Ra
  average MIC against M. tuberculosis H37Ra: ~ 24 µM
M. tuberculosis
  inhibition of M. tuberculosis respiration: 77%
MRSA
  effect in combination with ciprofloxacin: synergistic effect
  effect in combination with tetracycline: synergistic effect
  effect in combination with vancomycin: additivity
S. aureus/MRSA
  bactericidal effect: bactericidal effect in concentrations close to MICs
Staphylococcal biofilm
  effect on staphylococcal biofilm: ability to inhibit the growth of staphylococcal biofilm and disrupted mature biofilm in concentrations close to MICs
